Data published in patent publication US20140364500A1, “URSOLIC ACID SALTS FOR TREATING DIABETES AND OBESITY” (priority 2012, published 2014).

Key:
[1] = Solubility determination in water by HPLC assay; type: physicochemical; conditions: filtered, filtrate assayed by HPLC
Protocol: The average AUC of the three runs was used to determine the concentration.
Agilent 1100 HPLC; Eclipse XDB-C18 50×4.6 mm 1.8 micron column; Gradient—5 min 95% water (0.10% TFA) to 95% acetonitrile (0.07% TFA); 1.5 mL/min; UV Detection @ 210 nm.

[2] = Merck Index, 11th Edition, page 1556; cited from earlier work

In the case of `C[C@H]1[C@H](C)CC[C@]2(C(=O)O)CC[C@]3(C)C(=CC[C@@H]4[C@@]5(C)CC[C@H](O)C(C)(C)[C@@H]5CC[C@]43C)[C@H]12` [Ursolic acid], the “detection by HPLC assay in filtrate of water saturated with the substance” value [1] is listed as “not detected” and the “solubility in water (literature citation)” value [2] is listed as “insoluble in water”.
